Data on two compounds can be found in patent publication US7357930B1, “Methods and formulations for targeting infectious agents bearing host cell proteins” (Infectio Recherche Inc., priority 1999, dated 2008).

The subject of one data set is HIV-1NL4-3. Put plainly: AmB inhibition of HIV-1NL4-3 replication in 1G5 cells (luciferase activity).
A further data set has as its system 1G5 cells. Put plainly: Cellular viability / toxicity in 1G5 cells. Format: cell-based. The settings on record: 72 h, concentration range tested (0-10 μg/ml), data not shown.
The test system of data set [1] is HIV-1-based luciferase reporter viruses with HXB2, AML-V or VSV-G env. In kind it is cell-based.
The next data set relates to Mono Mac 1 cell line. In words: Toxicity in Mono Mac 1 cells. In kind it is cell-based. The settings on record: data not shown.

Read-outs that look alike come from different tables or passages of the source.

Procedure for HIV-1NL4-3: In a second set of experiments, AmB and the virus were added simultaneously to cells and incubation was made during the first two hours of infection (open square).
Infection was monitored by measuring the luciferase activity. […] Thereafter, an aliquot of this cell lysate (20 μl) was mixed with 100 μl of luciferase assay buffer and activity was evaluated using a microplate luminometer.

Regarding `C[C@@H]1[C@H](O)[C@@H](C)/C=C/C=C/C=C/C=C/C=C/C=C/C=C/[C@H](O[C@@H]2O[C@H](C)[C@@H](O)[C@H](N)[C@@H]2O)C[C@@H]2O[C@](O)(C[C@@H](O)C[C@@H](O)[C@H](O)CC[C@@H](O)C[C@@H](O)CC(=O)O[C@H]1C)C[C@H](O)[C@H]2C(=O)O` [AmB, amphotericin B], in the data set with HIV-1NL4-3 (1G5 cells pretreated with AmB), the “concentration giving complete inhibition of HIV-1NL4-3 replication” value is recorded as 10 μg AmB/ml. In addition, the “inhibition of viral replication” value in the data set on HIV-1NL4-3 (AmB added to infected cells after adsorption, 10 μg AmB/ml, 72 h) was determined as 40%. For the same compound, in the data set with HIV-1NL4-3 (cell-free virus pretreated 1 h at 37° C.), the “concentration giving complete abrogation of viral replication” value is on record as 5 μg AmB/ml. In addition, the viral particles inactivated result in the data set with HIV-1NL4-3 (cell-free virus pretreated 1 h at 37° C. with 1 μg AmB/ml) is “About 50%”. Moreover, in the data set with HIV-1NL4-3 (virus and AmB added simultaneously to cells (no pretreatment)), the “concentration giving complete inhibition of HIV-1 replication” value was 10 μg AmB/ml. For the same compound, the cellular viability entry with 1G5 cells is on record as “did not affect the cellular viability”. The “inhibition of infection with pseudotyped virions” value in data set [1] is listed as “efficient to inhibit infection”. In addition, the toxicity entry in the data set on Mono Mac 1 cell line is on record as “without significant toxicity”.

With `CC(C)(C)NC(=O)[C@@H]1CN(Cc2cccnc2)CCN1C[C@@H](O)C[C@@H](Cc1ccccc1)C(=O)N[C@H]1c2ccccc2C[C@H]1O` [Free indinavir, indinavir], the “Area under the curve of indinavir” value (Brachial lymph nodes) amounted to 4.9 μmoles lipids/g tissues/h; the “Area under the curve of indinavir” value (Cervical lymph nodes) is 7.6 μmoles lipids/g tissues/h; the “Area under the curve of indinavir” value (Inguinal lymph nodes) stood at 4.1 μmoles lipids/g tissues/h; the “Area under the curve of indinavir” value (Liver) is recorded as 35.0 μmoles lipids/g tissues/h; the “Area under the curve of indinavir” value (Mesenteric lymph nodes) amounted to 6.4 μmoles lipids/g tissues/h; the “Area under the curve of indinavir” value (Plasma) is given as 2.3 μmoles lipids/g tissues/h. Besides, the “Area under the curve of indinavir” value by setting is: (Popliteal lymph nodes) 4.5 μmoles lipids/g tissues/h; (Spleen) 5.3 μmoles lipids/g tissues/h. The “drug levels in lymphoid tissues” value (all lymphoid tissues) is “very low drug levels”.
